Measured values published in US11046680B1, “Heteroaryl-substituted triazoles as APJ receptor agonists” (priority 2016, dated 2021).

Each molecule was assayed against human APJ receptor (Homo sapiens (Human), UniProt P35414) (assay: biochemical). Conditions: [35S]GTPγS binding, CHO membranes expressing human APJ receptor; read-out: Activity hAPJ SPA EC50 IP.
Chain of human APJ receptor (P35414 whole entry): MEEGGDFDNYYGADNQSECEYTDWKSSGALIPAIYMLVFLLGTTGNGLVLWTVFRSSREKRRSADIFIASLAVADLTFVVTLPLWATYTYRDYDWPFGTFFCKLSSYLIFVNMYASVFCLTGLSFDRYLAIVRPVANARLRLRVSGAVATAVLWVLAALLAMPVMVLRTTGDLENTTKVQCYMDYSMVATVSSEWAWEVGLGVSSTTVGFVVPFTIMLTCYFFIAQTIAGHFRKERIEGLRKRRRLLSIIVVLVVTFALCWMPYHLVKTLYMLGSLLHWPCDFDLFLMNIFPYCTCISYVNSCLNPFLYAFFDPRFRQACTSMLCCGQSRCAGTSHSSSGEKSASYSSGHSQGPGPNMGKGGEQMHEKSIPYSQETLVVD
Assay type: biochemical
How it was run: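 GTPγS binding on membranes from CHO cells stably expressing FLAG-tagged human APJ, with optimized GDP, MgCl2 and NaCl; incubated 90 min at RT before imaging read-out.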
In the case of COc1cccc(OC)c1-n1c(NS(=O)(=O)[C@@H](C)[C@@H](OC(C)C)c2ncc(C)cn2)nnc1-c1noc(C)c1C [Example 517.0, (1S,2S)-N-(4-(2,6-dimethoxyphenyl)-5-(4,5-dimethylisoxazol-3-yl)-4H-1,2,4-triazol-3-yl)-1-isopropoxy-1-(5-methylpyrimidin-2-yl)propane-2-sulfonamide], the EC50 is reported as 3 nM. Molecule COCC1(n2c(NS(=O)(=O)[C@@H](C)[C@H](OC)c3ncc(Cl)cn3)nnc2-c2nn(C)c3c2CCCC3)CCC1 [Example 518.0] has an EC50 of 92 nM. With CCc1onc(-c2nnc(NS(=O)(=O)[C@@H](C)[C@H](OC)c3ncc(Cl)cn3)n2-c2c(OC)cccc2OC)c1C [Example 519.0] the EC50 was 0.32 nM. Molecule COc1cccc(OC)c1-n1c(NS(=O)(=O)[C@@H](C)[C@H](OC)c2ncc(Cl)cn2)nnc1-c1c[nH]cn1 [Example 523.0, (1R,2S)-1-(5-chloropyrimidin-2-yl)-N-(4-(2,6-dimethoxyphenyl)-5-(1H-imidazol-4-yl)-4H-1,2,4-triazol-3-yl)-1-methoxypropane-2-sulfonamide] has an EC50 of 3.2 nM. COC[C@@H](C)n1c(NS(=O)(=O)[C@@H](C)[C@H](OC)c2ncc(Cl)cn2)nnc1-c1ccn(C)n1 [Example 531.0, (1R,2S)-1-(5-chloro-2-pyrimidinyl)-1-methoxy-N-(4-((2R)-1-methoxy-2-propanyl)-5-(1-methyl-1H-pyrazol-3-yl)-4H-1,2,4-triazol-3-yl)-2-propanesulfonamide] was tested, and the EC50 was 50 nM. With CC(C)O[C@@H](c1ncc(Cl)cn1)[C@H](C)S(=O)(=O)Nc1nnc(-c2ccn(C)n2)n1C1CC1 [Example 532.0, (1S,2S)-1-(5-chloro-2-pyrimidinyl)-N-(4-cyclopropyl-5-(1-methyl-1H-pyrazol-3-yl)-4H-1,2,4-triazol-3-yl)-1-(2-propanyloxy)-2-propanesulfonamide] the EC50 was 22 nM. COC[C@H](C)n1c(NS(=O)(=O)[C@@H](C)[C@H](C)c2ncc(Cl)cn2)nnc1-c1ccn(C)n1 [Example 533.0, (2S,3R)-3-(5-chloro-2-pyrimidinyl)-N-(4-((2S)-1-methoxy-2-propanyl)-5-(1-methyl-1H-pyrazol-3-yl)-4H-1,2,4-triazol-3-yl)-2-butanesulfonamide] was tested, and the EC50 was 110 nM. With COc1ncnc(OC)c1-n1c(NS(=O)(=O)[C@@H](C)[C@H](C)c2ccc(Cl)cn2)nnc1-c1ccn(C)n1 [Example 534.0, (2S,3R)-3-(5-chloro-2-pyridinyl)-N-(4-(4,6-dimethoxy-5-pyrimidinyl)-5-(1-methyl-1H-pyrazol-3-yl)-4H-1,2,4-triazol-3-yl)-2-butanesulfonamide] the EC50 was 0.93 nM. Molecule COc1ncnc(OC)c1-n1c(NS(=O)(=O)[C@@H](C)[C@H](C)c2ccc(Cl)cn2)nnc1-c1cnn(C)c1 [Example 535.0, (2S,3R)-3-(5-chloro-2-pyridinyl)-N-(4-(4,6-dimethoxy-5-pyrimidinyl)-5-(1-methyl-1H-pyrazol-4-yl)-4H-1,2,4-triazol-3-yl)-2-butanesulfonamide] has an EC50 of 0.66 nM. Molecule CC(C)O[C@@H](c1ncc(Cl)cn1)[C@H](C)S(=O)(=O)Nc1nnc(-c2cnn(C)c2)n1C1CC1 [Example 536.0, (1S,2S)-1-(5-chloro-2-pyrimidinyl)-N-(4-cyclopropyl-5-(1-methyl-1H-pyrazol-4-yl)-4H-1,2,4-triazol-3-yl)-1-(2-propanyloxy)-2-propanesulfonamide] has an EC50 of 70 nM. In the case of CC(C)O[C@@H](c1ncc(Cl)cn1)[C@H](C)S(=O)(=O)Nc1nnc(-c2ccn(C)n2)n1C(C)C [Example 537.0, (1S,2S)-1-(5-chloro-2-pyrimidinyl)-N-(5-(1-methyl-1H-pyrazol-3-yl)-4-(2-propanyl)-4H-1,2,4-triazol-3-yl)-1-(2-propanyloxy)-2-propanesulfonamide], the EC50 is reported as 27 nM. CC(C)O[C@@H](c1ncc(Cl)cn1)[C@H](C)S(=O)(=O)Nc1nnc(-c2ccn(C)n2)n1C1(C)CC1 [Example 538.0, (1S,2S)-1-(5-chloro-2-pyrimidinyl)-N-(4-(1-methylcyclopropyl)-5-(1-methyl-1H-pyrazol-3-yl)-4H-1,2,4-triazol-3-yl)-1-(2-propanyloxy)-2-propanesulfonamide] was tested, and the EC50 was 20 nM. Work on “(1R,2S)-N-(4-(2,6-dimethoxyphenyl)-5-(1-methyl-1H-pyrazol-3-yl)-4H-1,2,4-triazol-3-yl)-1-(5-fluoro-2-pyridinyl)-1-hydroxy-2-propanesulfonamide and (1S,2R)-N-(4-(2,6-dimethoxyphenyl)-5-(1-methyl-1H-pyrazol-3-yl)-4H-1,2,4-triazol-3-yl)-1-(5-fluoro-2-pyridinyl)-1-hydroxy-2-propanesulfonamide [Example 24.0]” yielded an EC50 of 0.18 nM. “(1R,2S)-N-(4-(2,6-dimethoxyphenyl)-5-(1-methyl-1H-pyrazol-3-yl)-4H-1,2,4-triazol-3-yl)-1-(5-fluoro-2-pyridinyl)-1-hydroxy-2-propanesulfonamide and (1S,2R)-N-(4-(2,6-dimethoxyphenyl)-5-(1-methyl-1H-pyrazol-3-yl)-4H-1,2,4-triazol-3-yl)-1-(5-fluoro-2-pyridinyl)-1-hydroxy-2-propanesulfonamide [Example 25.0]” was tested, and the EC50 was 15 nM. “(1R,2S)-N-(4-(2,6-dimethoxyphenyl)-5-(1-methyl-1H-pyrazol-3-yl)-4H-1,2,4-triazol-3-yl)-1-methoxy-1-(5-methoxy-2-pyrazinyl)-2-propanesulfonamide and (1S,2R)-N-(4-(2,6-dimethoxyphenyl)-5-(1-methyl-1H-pyrazol-3-yl)-4H-1,2,4-triazol-3-yl)-1-methoxy-1-(5-methoxy-2-pyrazinyl)-2-propanesulfonamide [Example 307.0]” gave an EC50 of 1 nM. “(1R,2S)-N-(4-(2,6-dimethoxyphenyl)-5-(1H-pyrro1o[2,3-b]pyridin-3-yl)-4H-1,2,4-triazol-3-yl)-1-methoxy-1-(5-methylpyrimidin-2-yl)propane-2-sulfonamide [Example 413.0]” showed an EC50 of 30 nM. For “(2R,3R)-3-(5-Cyanopyrimidin-2-yl)-N-(4-(2,6-dimethoxyphenyl)-5-(4-methylthiazol-2-yl)-4H-1,2,4-triazol-3-yl)-3-fluorobutane-2-sulfonamide and (2S,3S)-3-(5-cyanopyrimidin-2-yl)-N-(4-(2,6-dimethoxyphenyl)-5-(4-methylthiazol-2-yl)-4H-1,2,4-triazol-3-yl)-3-fluorobutane-2-sulfonamide [Example 321.0]”, the EC50 was 1.6 nM. In the case of “(2R,3S)-N-(4-(2,6-dimethoxyphenyl)-5-(1-methyl-1H-pyrazol-3-yl)-4H-1,2,4-triazol-3-yl)-3-(5-methyl-1-oxido-2-pyrazinyl)-2-butanesulfonamide and (2S,3R)-N-(4-(2,6-dimethoxyphenyl)-5-(1-methyl-1H-pyrazol-3-yl)-4H-1,2,4-triazol-3-yl)-3-(5-methyl-1-oxido-2-pyrazinyl)-2-butanesulfonamide [Example 280.0]”, the EC50 is reported as 3.5 nM. “(2R,3S)-N-(4-(2,6-dimethoxyphenyl)-5-(1-methyl-1H-pyrazol-3-yl)-4H-1,2,4-triazol-3-yl)-3-(5-methyl-2-pyrazinyl)-2-butanesulfonamide and (2S,3R)-N-(4-(2,6-dimethoxyphenyl)-5-(1-methyl-1H-pyrazol-3-yl)-4H-1,2,4-triazol-3-yl)-3-(5-methyl-2-pyrazinyl)-2-butanesulfonamide [Example 279.0]” was tested, and the EC50 was 2.8 nM. Molecule “(2S)-N-(4-(2,6-dimethoxyphenyl)-5-(2-pyrazinyl)-4H-1,2,4-triazol-3-yl)-1-(5-fluoro-2-pyrimidinyl)-2-propanesulfonamide and (2R)-N-(4-(2,6-dimethoxyphenyl)-5-(2-pyrazinyl)-4H-1,2,4-triazol-3-yl)-1-(5-fluoro-2-pyrimidinyl)-2-propanesulfonamide [Example 182.0]” has an EC50 of 84 nM. “(2S)-N-(4-(2,6-dimethoxyphenyl)-5-(6-methoxy-2-pyrazinyl)-4H-1,2,4-triazol-3-yl)-1-(5-fluoro-2-pyrimidinyl)-2-propanesulfonamide and (2R)-N-(4-(2,6-dimethoxyphenyl)-5-(6-methoxy-2-pyrazinyl)-4H-1,2,4-triazol-3-yl)-1-(5-fluoro-2-pyrimidinyl)-2-propanesulfonamide [Example 177.0]” gave an EC50 of 4.5 nM. Work on “(R)-N-(4-(2,6-dimethoxyphenyl)-5-(1,5-dimethyl-1H-pyrazol-3-yl)-4H-1,2,4-triazol-3-yl)-1-(5-fluoropyrimidin-2-yl)propane-2-sulfonamide and (S)-N-(4-(2,6-dimethoxyphenyl)-5-(1,5-dimethyl-1H-pyrazol-3-yl)-4H-1,2,4-triazol-3-yl)-1-(5-fluoropyrimidin-2-yl)propane-2-sulfonamide [Example 46.0]” yielded an EC50 of 31 nM. “(R)-N-(4-(2,6-dimethoxyphenyl)-5-(1,5-dimethyl-1H-pyrazol-3-yl)-4H-1,2,4-triazol-3-yl)-1-(5-fluoropyrimidin-2-yl)propane-2-sulfonamide and (S)-N-(4-(2,6-dimethoxyphenyl)-5-(1,5-dimethyl-1H-pyrazol-3-yl)-4H-1,2,4-triazol-3-yl)-1-(5-fluoropyrimidin-2-yl)propane-2-sulfonamide [Example 53.0]” showed an EC50 of 9.7 nM. “(R)-N-(4-(2,6-dimethoxyphenyl)-5-(1,5-dimethyl-1H-pyrazol-3-yl)-4H-1,2,4-triazol-3-yl)-1-(5-fluoropyrimidin-2-yl)propane-2-sulfonamide and (S)-N-(4-(2,6-dimethoxyphenyl)-5-(1,5-dimethyl-1H-pyrazol-3-yl)-4H-1,2,4-triazol-3-yl)-1-(5-fluoropyrimidin-2-yl)propane-2-sulfonamide [Example 54.0]” gave an EC50 of 33 nM. Molecule “(R)-N-(4-(2,6-dimethoxyphenyl)-5-(1-methyl-1H-pyrazol-4-yl)-4H-1,2,4-triazol-3-yl)-1-(5-fluoropyrimidin-2-yl)propane-2-sulfonamide and (R)-N-(4-(2,6-dimethoxyphenyl)-5-(1-methyl-1H-pyrazol-4-yl)-4H-1,2,4-triazol-3-yl)-1-(5-fluoropyrimidin-2-yl)propane-2-sulfonamide [Example 40.0]” has an EC50 of 5.2 nM.
